Species on record: Rattus norvegicus
Experiment: DrugMatrix - Regimen: Daily Repeat
Format: toxicity, organism-based, Sprague-Dawley
Set-up: regimen Daily Repeat, gender Male, age 6-8 weeks
Settings: in vivo, po, route oral GAVAGE, […]; for ABSOLUTE BASOPHIL / ABSOLUTE EOSINOPHIL / ABSOLUTE LYMPHOCYTE / ABSOLUTE MONOCYTE / ABSOLUTE SEGMENTED NEUTROPHIL / BASOPHIL / EOSINOPHIL / ERYTHROCYTE COUNT / HEMATOCRIT / HEMOGLOBIN / LEUKOCYTE COUNT / LYMPHOCYTE / MEAN CORPUSCULAR HEMOGLOBIN / MEAN CORPUSCULAR HEMOGLOBIN CONCENTRATION / MEAN CORPUSCULAR VOLUME / MONOCYTE / NEUTROPHIL / NUCLEATED RED BLOOD CELLS / PLATELET COUNT: tissue Blood; for ALANINE AMINOTRANSFERASE / ALBUMIN / ALKALINE PHOSPHATASE / ASPARTATE AMINOTRANSFERASE / BLOOD UREA NITROGEN / CARBON DIOXIDE / CHLORIDE / CHOLESTEROL / CREATINE PHOSPHOKINASE / CREATININE / GLUCOSE / LACTATE DEHYDROGENASE / LIPASE / PHOSPHORUS / POTASSIUM / SODIUM / TOTAL BILIRUBIN / TOTAL PROTEIN: tissue Plasma
[1] = 20 mg/kg, 72 h, dose level Low, time 3 day
[2] = 20 mg/kg, 120 h, dose level Low, time 5 day
[3] = 210 mg/kg, 72 h, dose level High, time 3 day
[4] = 210 mg/kg, 120 h, dose level High, time 5 day

Compound: CN[C@H]1CC[C@@H](c2ccc(Cl)c(Cl)c2)c2ccccc21 [SERTRALINE]
- ABSOLUTE BASOPHIL [1]: 0 CELLS/uL
- ABSOLUTE EOSINOPHIL [1]: 28.33 CELLS/uL
- ABSOLUTE LYMPHOCYTE [1]: 10624.33 CELLS/uL
- ABSOLUTE MONOCYTE [1]: 86.67 CELLS/uL
- ABSOLUTE SEGMENTED NEUTROPHIL [1]: 1294 CELLS/uL
- BASOPHIL [1]: 0%
- EOSINOPHIL [1]: 0.33%
- ERYTHROCYTE COUNT [1]: 5.85 x10E6/uL
- HEMATOCRIT [1]: 36.57%
- HEMOGLOBIN [1]: 14.27 G/DL
- LEUKOCYTE COUNT [1]: 12.03 x10E3/uL
- LYMPHOCYTE [1]: 87.67%
- MEAN CORPUSCULAR HEMOGLOBIN [1]: 24.37 pg
- MEAN CORPUSCULAR HEMOGLOBIN CONCENTRATION [1]: 39.03 G/DL
- MEAN CORPUSCULAR VOLUME [1]: 62.47 fL
- MONOCYTE [1]: 0.67%
- NEUTROPHIL [1]: 11.33%
- NUCLEATED RED BLOOD CELLS [1]: 0 /100WBC
- PLATELET COUNT [1]: 1161.67 x10E3/uL
- ALANINE AMINOTRANSFERASE [1]: 70.33 u/L
- ALBUMIN [1]: 4.23 G/DL
- ALKALINE PHOSPHATASE [1]: 384.33 u/L
- ASPARTATE AMINOTRANSFERASE [1]: 83.33 u/L
- BLOOD UREA NITROGEN [1]: 14 mg/dL
- CARBON DIOXIDE [1]: 29.67 mmol/L
- CHLORIDE [1]: 103 MEQ/L
- CHOLESTEROL [1]: 79 mg/dL
- CREATINE PHOSPHOKINASE [1]: 163 u/L
- CREATININE [1]: 0.23 mg/dL
- GLUCOSE [1]: 158 mg/dL
- LACTATE DEHYDROGENASE [1]: 155 u/L
- LIPASE [1]: 11 u/L
- PHOSPHORUS [1]: 12.33 mg/dL
- POTASSIUM [1]: 6.97 MEQ/L
- SODIUM [1]: 147.8 MEQ/L
- TOTAL BILIRUBIN [1]: 0.17 mg/dL
- TOTAL PROTEIN [1]: 5.57 G/DL
- ABSOLUTE BASOPHIL [2]: 0 CELLS/uL
- ABSOLUTE EOSINOPHIL [2]: 46.67 CELLS/uL
- ABSOLUTE LYMPHOCYTE [2]: 12898.33 CELLS/uL
- ABSOLUTE MONOCYTE [2]: 0 CELLS/uL
- ABSOLUTE SEGMENTED NEUTROPHIL [2]: 955 CELLS/uL
- BASOPHIL [2]: 0%
- EOSINOPHIL [2]: 0.33%
- ERYTHROCYTE COUNT [2]: 5.71 x10E6/uL
- HEMATOCRIT [2]: 34.57%
- HEMOGLOBIN [2]: 13.57 G/DL
- LEUKOCYTE COUNT [2]: 13.9 x10E3/uL
- LYMPHOCYTE [2]: 92.33%
- MEAN CORPUSCULAR HEMOGLOBIN [2]: 23.83 pg
- MEAN CORPUSCULAR HEMOGLOBIN CONCENTRATION [2]: 39.27 G/DL
- MEAN CORPUSCULAR VOLUME [2]: 60.73 fL
- MONOCYTE [2]: 0%
- NEUTROPHIL [2]: 7.33%
- NUCLEATED RED BLOOD CELLS [2]: 0 /100WBC
- PLATELET COUNT [2]: 913 x10E3/uL
- ALANINE AMINOTRANSFERASE [2]: 60.33 u/L
- ALBUMIN [2]: 4.27 G/DL
- ALKALINE PHOSPHATASE [2]: 427 u/L
- ASPARTATE AMINOTRANSFERASE [2]: 85 u/L
- BLOOD UREA NITROGEN [2]: 13.67 mg/dL
- CARBON DIOXIDE [2]: 25.33 mmol/L
- CHLORIDE [2]: 103.33 MEQ/L
- CHOLESTEROL [2]: 77.67 mg/dL
- CREATINE PHOSPHOKINASE [2]: 211 u/L
- CREATININE [2]: 0.18 mg/dL
- GLUCOSE [2]: 164.33 mg/dL
- LACTATE DEHYDROGENASE [2]: 121.33 u/L
- LIPASE [2]: 10.33 u/L
- PHOSPHORUS [2]: 12.77 mg/dL
- POTASSIUM [2]: 7.01 MEQ/L
- SODIUM [2]: 147.5 MEQ/L
- TOTAL BILIRUBIN [2]: 0.2 mg/dL
- TOTAL PROTEIN [2]: 5.9 G/DL
- ABSOLUTE BASOPHIL [3]: 0 CELLS/uL
- ABSOLUTE EOSINOPHIL [3]: 0 CELLS/uL
- ABSOLUTE LYMPHOCYTE [3]: 11258 CELLS/uL
- ABSOLUTE MONOCYTE [3]: 82.33 CELLS/uL
- ABSOLUTE SEGMENTED NEUTROPHIL [3]: 1226.33 CELLS/uL
- BASOPHIL [3]: 0%
- EOSINOPHIL [3]: 0%
- ERYTHROCYTE COUNT [3]: 6.22 x10E6/uL
- HEMATOCRIT [3]: 39.43%
- HEMOGLOBIN [3]: 15.5 G/DL
- LEUKOCYTE COUNT [3]: 12.57 x10E3/uL
- LYMPHOCYTE [3]: 89.67%
- MEAN CORPUSCULAR HEMOGLOBIN [3]: 24.93 pg
- MEAN CORPUSCULAR HEMOGLOBIN CONCENTRATION [3]: 39.33 G/DL
- MEAN CORPUSCULAR VOLUME [3]: 63.33 fL
- MONOCYTE [3]: 0.67%
- NEUTROPHIL [3]: 9.67%
- NUCLEATED RED BLOOD CELLS [3]: 0 /100WBC
- PLATELET COUNT [3]: 1225 x10E3/uL
- ALANINE AMINOTRANSFERASE [3]: 53.67 u/L
- ALBUMIN [3]: 4.33 G/DL
- ALKALINE PHOSPHATASE [3]: 460.67 u/L
- ASPARTATE AMINOTRANSFERASE [3]: 112 u/L
- BLOOD UREA NITROGEN [3]: 16 mg/dL
- CARBON DIOXIDE [3]: 28.33 mmol/L
- CHLORIDE [3]: 101.33 MEQ/L
- CHOLESTEROL [3]: 55.33 mg/dL
- CREATINE PHOSPHOKINASE [3]: 286.67 u/L
- CREATININE [3]: 0.22 mg/dL
- GLUCOSE [3]: 117.33 mg/dL
- LACTATE DEHYDROGENASE [3]: 163.33 u/L
- LIPASE [3]: 10.33 u/L
- PHOSPHORUS [3]: 11.53 mg/dL
- POTASSIUM [3]: 6.21 MEQ/L
- SODIUM [3]: 146.43 MEQ/L
- TOTAL BILIRUBIN [3]: 0.1 mg/dL
- TOTAL PROTEIN [3]: 5.97 G/DL
- ABSOLUTE BASOPHIL [4]: 0 CELLS/uL
- ABSOLUTE EOSINOPHIL [4]: 207 CELLS/uL
- ABSOLUTE LYMPHOCYTE [4]: 18574.33 CELLS/uL
- ABSOLUTE MONOCYTE [4]: 70.33 CELLS/uL
- ABSOLUTE SEGMENTED NEUTROPHIL [4]: 1848.33 CELLS/uL
- BASOPHIL [4]: 0%
- EOSINOPHIL [4]: 1%
- ERYTHROCYTE COUNT [4]: 6.11 x10E6/uL
- HEMATOCRIT [4]: 37.3%
- HEMOGLOBIN [4]: 14.97 G/DL
- LEUKOCYTE COUNT [4]: 20.7 x10E3/uL
- LYMPHOCYTE [4]: 89.67%
- MEAN CORPUSCULAR HEMOGLOBIN [4]: 24.53 pg
- MEAN CORPUSCULAR HEMOGLOBIN CONCENTRATION [4]: 40.13 G/DL
- MEAN CORPUSCULAR VOLUME [4]: 61.1 fL
- MONOCYTE [4]: 0.33%
- NEUTROPHIL [4]: 9%
- NUCLEATED RED BLOOD CELLS [4]: 0 /100WBC
- PLATELET COUNT [4]: 1278.33 x10E3/uL
- ALANINE AMINOTRANSFERASE [4]: 67 u/L
- ALBUMIN [4]: 4.07 G/DL
- ALKALINE PHOSPHATASE [4]: 368.33 u/L
- ASPARTATE AMINOTRANSFERASE [4]: 101.67 u/L
- BLOOD UREA NITROGEN [4]: 18 mg/dL
- CARBON DIOXIDE [4]: 26 mmol/L
- CHLORIDE [4]: 102.67 MEQ/L
- CHOLESTEROL [4]: 74 mg/dL
- CREATINE PHOSPHOKINASE [4]: 255.33 u/L
- CREATININE [4]: 0.23 mg/dL
- GLUCOSE [4]: 153 mg/dL
- LACTATE DEHYDROGENASE [4]: 287.33 u/L
- LIPASE [4]: 10 u/L
- PHOSPHORUS [4]: 12.3 mg/dL
- POTASSIUM [4]: 6.87 MEQ/L
- SODIUM [4]: 146.47 MEQ/L
- TOTAL BILIRUBIN [4]: 0.13 mg/dL
- TOTAL PROTEIN [4]: 5.9 G/DL

Reference: ChEMBL document CHEMBL3885881, “DrugMatrix”
